From US7169787B2, “7-azaindoles, use thereof as phosphodiesterase 4 inhibitors and method for producing the same” (Elbion AG, priority 2000, dated 2007)
pIC50: −log10 of the molar value.

Tests used:
[1] = target: PDE 4; assay: Inhibition of phosphodiesterase 4 (enzyme preparation from human PMNL, [3H]-cAMP); type: biochemical; details: PDE 4 from human PMNL cytosol, 0.5 μM [3H]-cAMP
Method: The PDE 4 activity is determined in enzyme preparations from human polymorphonuclear […] (PMNL) and the PDE 2, 3 and 5 activity is determined with PDE from human thrombocytes. Human blood was anti-coagulated with citrate. By centrifuging at 700×g for 20 minutes at room temperature, the thrombocyte-rich plasma in the supernatant is separated from the erythrocytes and leukocytes. The thrombocytes are lysed by ultrasound and used in the PDE 3 and PDE 5 assays. For the determination of the PDE 2 activity, the cytosolic thrombocyte fraction is purified on an anionic exchange column by means of NaCl gradients and the PDE 2 peak is obtained for the assay. The PMNLs for the PDE 4 determination are isolated by a subsequent dextran sedimentation, followed by a gradient centrifugation with Ficoll-Paque. After the cells have been washed twice, the erythrocytes, still contained, are lysed within 6 minutes at 4° C. by the addition of 10 mL of hypotonic buffer (155 mM of NH4Cl, 10 mM of NaHCO3, 0.1 mM of EDTA, pH=7.4). The PMNLs, which are still intact, are washed twice with PBS and lysed with ultrasound. The supernatant of a one-hour centrifugation at 4° C. at 48,000×g contains the cytosolic fraction of the PDE 4 and is used for the PDE 4 measurements.
The phosphodiesterase activity is determined using the method described by Thompson et al. with some modifications (Thompson, W. J. and M. M. Appleman, Assay of cyclic nucleotide phosphodiesterase and resolution of multiple molecular forms of the enzyme, Adv. Cycl. Nucl. Res. 1979, 10, 69–92).
The reaction mixtures contain 50 mM of tris hydrochloride (pH 7.4), 5 mM of magnesium chloride, the inhibitors in various concentrations, the corresponding enzyme preparation as well as the further components necessary for determining the individual isoenzymes (see below). The reaction is started by the addition of the substrate, 0.5 μM of [^3H]-cAMP or [^3H]-cGMP (approximately 6000 CPM per test). The final volume is […]. Test substances are mixed as stock solutions in DMSO. The DMSO concentration in the reaction mixture is 1% v/v. The PDE activity is not affected by this concentration of DMSO. After the reaction is started by the addition of substrate, samples are incubated for 30 minutes at 37° C. The reaction is stopped by heating the test tubes for 2 minutes at 110° C. The samples remain for a further 10 minutes in ice. The addition of 30 μL of 5′-nucleotidase (1 mg/mL, from a poisonous snake suspension from Crotalus adamanteus) is followed by a 10-minutes incubation at 37° C. The samples are stopped on ice, in each case 400 μL of a mixture of Dowex, water and ethanol (1+1+1) is added, mixed well and incubated once again for 15 minutes on ice. The reaction vessels are centrifuged for 20 minutes at 3000×g. Aliquots of the supernatant (200 μL) are transferred directly to scintillation vessels. After the addition of 3 mL of scintillator, the samples are measured in the beta counter.
[^3H]-cAMP is used as substrate for the determination of the PDE 4, 3 and 2 activity and [^3H]-cGMP is used as substrate for the determination of the PDE 5 activity. The enzyme activities, which are nonspecific in each case, are determined in the presence of 100 μM of Rolipram for the determination of PDE 4 and in the presence of 100 μM of IBMX for the determination of the PDE 3 and 5 and subtracted from the test values. The incubation formulations of the PDE 3 assays contained 10 μM of Rolipram, in order to inhibit possible contaminations by PDE 4. The PDE 2 is tested with an SPA assay of the Amersham Company. The assay is carried out in the presence of the activator of the PDE 2 (5 μM of cGMP).

[2] = tested on: release of TNFα from cells of nasal polyps; assay: Inhibition of the release of TNFα from cells of nasal polyps (anti-IgE stimulated, ELISA); type: cell-based; details: Homo sapiens, anti-IgE stimulated nasal polyp cells
Method: The experimental arrangement corresponds essentially to the method described by Campbell, A. M. and J. Bousquet (Anti-allergic activity of H1-blockers, Int. Arch. Allergy Immunol., 1993, 101, 308–310). Nasal polyps form the starting material (material from patients, who had been subjected to a surgical treatment).
The tissue is washed with RPMI 1640 and subsequently digested with protease (2.0 mg/mL), collagenase (1.5 mg/mL), hyaluronidase (0.75 mg/mL), and DNAse (0.05 mg/mL) for two hours at 37° C. (1 g of tissue and 4 mL of RPMI 1640 with enzymes). The cells obtained, a mixture of epithelial cells, monocytes, macrophages, lymphocytes, fibroblasts and granulocytes, are filtered and washed by being centrifuged repeatedly in culture solution and sensitized passively by the addition of human IgE and the cell suspension is brought to a concentration of 2 million cells/mL in RPMI 1640 (supplemented by antibiotics, 10% fetal calf serum, 2 mM of glutamine and 25 mM of Hepes). This suspension is distributed on six-well cell culture plates (1 ml/well). The cells are pre-incubated for 30 minutes with the test substances in different final concentrations and subsequently stimulated to release TNFα by the addition of anti-IgE (7.2 μg/mL). The maximum release into the culture medium takes place after about 18 hours. During this period, the cells are incubated at 37° C. and 5% carbon dioxide. The culture medium (supernatant) is recovered by centrifuging (five minutes at 4000 rpm) and kept at −70° C. until the cytokin is determined. The TNFα in the supernatant is determined with so-called sandwich ELISAs (basic material Pharmingen), with which cytokin concentrations ranging from 30 to 1000 pg/mL can be determined.
Cells, not stimulated with anti IgE, hardly produce any TNFα; on the other hand, stimulated cells secrete large amounts of TNFα, which can be reduced, for example, by PDE 4 inhibitors as a function of the dose. From the percentage inhibition (TNFα release by the cells, stimulated with anti IgE=100%) of the substances tested at different concentrations, the IC50 (concentration at 50% inhibition) is calculated.

| Structure (SMILES) | pIC50 [1] | inhibition at 0.3 µM ([2]; concentration 0.3 μmole/L) | inhibition at 1 µM ([2]; concentration 1.0 μmole/L) |
| --- | --- | --- | --- |
| O=C(Nc1c(Cl)cncc1Cl)C(=O)c1cn(Cc2ccc(F)cc2)c2ncccc12 [Example 14] | 8.40 | 92% |  |
| CC(C)Cn1cc(C(=O)C(=O)Nc2c(Cl)cncc2Cl)c2cccnc21 [Example 27] | 8.70 |  | 91% |
